Publication PMC6874683, “Pyrrothiogatain acts as an inhibitor of GATA family proteins and inhibits Th2 cell differentiation in vitro” (Scientific Reports, 2019)

System: Th2 cells
Assay: Cytokine production of in vitro differentiated Th2 cells restimulated for 16 h (ELISA)
Assay type: cell-based, mouse
Conditions: restimulated 16 h, 0 to 100 µM
Description: To clarify the effects of pyrrothiogatain on Th2 cell differentiation, naive CD4 T cells were purified and cultured under Th2 conditions in the presence or absence of pyrrothiogatain for 5 days, and then the Th2 cell differentiation status was determined by intracellular staining. The generation of IL-4-, IL-5-, and IL-13-producing Th2 cells was repressed by treatment with pyrrothiogatain (Fig. 5A). Decreased production and mRNA expression of IL-4, IL-5 and IL-13 were confirmed using ELISA and RT-qPCR, respectively (Fig. 5B,C). […] Next, we treated in vitro differentiated Th2 cells with pyrrothiogatain to test the effect of pyrrothiogatain on Th2 cytokine production. Total CD4^+ cells were cultured under Th2 conditions for 5 days, and then the Th2 cells were restimulated in the presence or absence of pyrrothiogatain for 16 h. […]
Figure 5 Pyrrothiogatain inhibits Th2 cell differentiation and production of Th2 cytokines. […] (B) Cytokine production induced in the pyrrothiogatain treated Th2 cells shown in panel (A) was determined by ELISA. (C) Quantitative RT-PCR analysis of the pyrrothiogatain-treated Th2 cells shown in panel (A). […] The amounts of IL-4, IL-5 and IL-13 in the culture supernatants were determined by ELSA. In (B), (C) and (E), all data are expressed as individual points of three independent experiments with error bars indicating standard deviation. […]

## Cc1ccc(C)n1-c1ccsc1C(=O)O [Pyrrothiogatain, 3-(2,5-dimethyl-1H-pyrrol-1-yl)thiophene-2-carboxylic acid]
  IL-4, IL-5 and IL-13 production of restimulated Th2 cells: decreased
